# Experimental data as given in patent US8058243B2, “Method for treating a brain cancer with ifenprodil” (HSC Research and Development Limited Partnership, priority 2006, dated 2011).
# Counter-ions that a name gives are not always drawn. Like-named read-outs stand apart in the source and are kept apart here.
# Tested on: murine neural precursor cells (neurosphere cultures)
# Test: HTS of LOPAC library against secondary neurosphere cultures, MTT proliferation assay at 3 μM, day 7 (z score, P value)
# Assay type: cell-based, mouse
# [1] = primary LOPAC screen, 3 μM, MTT, neurosphere proliferation
# [2] = yes/no: significantly inhibited neurosphere proliferation in the primary screen
# [3] = LOPAC screen, neurosphere MTT proliferation, 3 μM, day 7
# [4] = yes/no: significantly inhibited neurosphere proliferation (P<0.01) in primary screen
# [5] = LOPAC library screen, 3 μM, MTT, neurosphere cultures
# [6] = LOPAC primary screen, neurosphere MTT proliferation, 3 μM, day 7
# [7] = LOPAC library screen, 3 μM, MTT, secondary neurosphere cultures, day 7
# [8] = yes = significantly inhibited neurosphere proliferation (P<0.01) in the primary screen
# [9] = LOPAC library screen at 3 μM, secondary neurosphere cultures, MTT
# [10] = yes/no: significantly inhibited neurosphere proliferation (P<0.01) in the primary screen
# [11] = yes/no: significantly inhibited neurosphere proliferation in primary screen
compound,measurement,setting,value
C[N+]1(C)C2CCC1CC(OC(=O)c1c[nH]c3ccccc13)C2.[I-] (stereo not shown),Z Score,,−0.3436
same,Z score,[1],−0.344
same,Activity,[2],no
Cc1nc2c(OCc3ccccc3)cccn2c1CC#N [SCH-28080],Z Score,,2.107
same,Z score,[3],2.107
same,Activity,[4],no
N[C@@H](Cc1c[nH]c2ccc(O)cc12)C(=O)O [5-Hydroxy-L-tryptophan],Z Score,[5],0.03011
same,Z score,[6],0.030
same,Activity,[4],no
Cl.NCC(O)C1CCCCCCC1 (stereo not shown),Z score,[3],−0.575
same,Activity,[4],no
CC(C)(C)c1ccc(S(=O)(=O)/C=C/C#N)cc1 [Bay 11-7085],Z Score,,2.18
same,Z score,[3],2.180
same,Activity,[4],no
CC(C)OC(=O)C(C)(C)Oc1ccc(C(=O)c2ccc(Cl)cc2)cc1 [Fenofibrate],Z Score,[7],−2.116
same,Z score,[6],−2.116
N[C@@H](CCC(=O)N[C@@H](CSN=O)C(=O)NCC(=O)O)C(=O)O [S-Nitrosoglutathione],Z Score,"168 h, 3 µM",0.6978
same,Z score,"168 h, 3 µM",0.698
same,Activity,[8],no
NC(Cc1ccc(Cl)cc1)C(=O)O (racemic) [(±)-p-Chlorophenylalanine],Z score,[3],−0.247
same,Activity,[4],no
(±)-Atenolol,Z score,[1],−0.658
same,Activity,[2],no
CCCC1O[C@@H]2C[C@H]3[C@@H]4CCC5=CC(=O)C=C[C@]5(C)[C@H]4[C@@H](O)C[C@]3(C)[C@]2(C(=O)CO)O1 (stereo partly shown) [Budesonide],Z Score,[7],−1.994
same,Z score,[3],−1.994
CN(C)C/C=C(/c1ccc(Br)cc1)c1cccnc1 [Zimelidine dihydrochloride],Z Score,[9],−0.649
same,Z score,[1],−0.649
same,Activity,[2],no
"CN1C2CCC1CC(OC(=O)c1cc(Cl)cc(Cl)c1)C2 (stereo not shown) [3-Tropanyl-3,5-dichlorobenzoate]",Z Score,,−9.272
same,Z score,[6],−9.272
same,Activity,[10],yes
Cc1ccccc1C(OCCN(C)C)c1ccccc1 (stereo not shown) [Orphenadrine hydrochloride],Z Score,[5],0.4548
same,Z score,[6],0.455
CC(=N)NCCCC[C@H](N)C(=O)O.Cl [L-N6-(1-Iminoethyl)lysine hydrochloride],Z Score,,−0.3809
same,Z score,[6],−0.381
same,Activity,[4],no
Nc1nnc(-c2cccc(Cl)c2Cl)c(N)n1 [Lamotrigine],Z Score,[9],−1.095
same,Z score,[6],−1.095
same,Activity,[4],no
COC(=O)c1c(-c2cc(OC)c(OC)c(OC)c2)c2ccnc(OCc3ncccn3)c2c(=O)n1Cc1ccnc(C)c1 [T-0156],Z Score,,0.07709
same,Z score,[1],0.077
same,Activity,[2],no
CCCOC(=O)c1c(-c2ccccc2)nc(CC)c(C(=O)SCC)c1CCC [MRS 1523],Z Score,,−0.001312
same,Z score,[6],−0.001
same,Activity,[8],no
CCN1CCc2nc(N)oc2CC1.Cl.Cl [B-HT 933 dihydrochloride],Z Score,,−1.28
same,Z score,[3],−1.280
same,Activity,[4],no
N[C@H](CO)C(=O)O [D-Serine],Z Score,[9],−0.1429
same,Z score,[6],−0.143
same,Activity,[11],no
Cc1nc(N=Nc2ccc(S(=O)(=O)O)cc2S(=O)(=O)O)c(COP(=O)(O)O)c(C=O)c1O [PPADS],Z Score,,1.106
same,Z score,[6],1.106
same,Activity,[11],no
"CCCn1c(=O)c2c(ncn2C)n(CCC)c1=O [1,3-Dipropyl-7-methylxanthine]",Z Score,"168 h, 3 µM",−0.08896
same,Z score,"168 h, 3 µM",−0.089
same,Activity,[4],no
O=C(O)c1cc(=O)c2ccccc2[nH]1 [Kynurenic acid],Z Score,[5],0.7018
same,Z score,[6],0.702
same,Activity,[4],no
S(−)-Willardiine,Z Score,,1.251
same,Z score,[1],1.251
same,Activity,[2],no
Cc1ccc(/C(=C\CN2CCCC2)c2ccccn2)cc1 [Triprolidine hydrochloride],Z Score,[9],−0.4061
same,Z score,[6],−0.406
same,Activity,[11],no
CCCCOc1cc(CC2CNC(=O)N2)ccc1OC (racemic) [Ro 20-1724],Z Score,,0.5874
same,Z score,[3],0.587
same,Activity,[4],no
Br.CCCN(CCC)C1CCc2ccc(O)cc2C1 (stereo not shown) [(B1)-7-Hydroxy-DPAT hydrobromide],Z Score,,−11.1
CN(CCOc1ccc(C[C@H](Nc2ccccc2C(=O)c2ccccc2)C(=O)O)cc1)c1ccccn1 [GW1929],Z Score,,0.01508
same,Z score,[6],0.015
same,Activity,[4],no
"CC(=O)C(C)=O [2,3-Butanedione]",Z Score,,−1.642
same,Z score,[3],−1.642
same,Activity,[4],no
O=C(NCCNCC(O)COc1ccc(O)cc1)N1CCOCC1 (stereo not shown) [Xamoterol hemifumarate],Z Score,"168 h, 3 µM",−0.1243
same,Z score,"168 h, 3 µM",−0.124
same,Activity,[2],no
COc1cc(OC)c(C=C2C(O)=Nc3ccccc32)c(OC)c1 [IC 261],Z Score,,−1.63
same,Z score,[6],−1.630
same,Activity,[11],no
COc1ccc2c(c1)c(CC(=O)O)c(C)n2C(=O)c1ccccc1 [1-benzoyl-5-methoxy-2-methylindole-3-acetic acid],Z Score,[9],−0.955
same,Z score,[1],−0.955
same,Activity,[2],no
CC(C)NCC(O)c1ccc(O)c(O)c1.Cl (racemic) [(±)-Isopoterenol hydrochloride],Z score,[6],−0.572
same,Activity,[4],no
NC(=O)c1cccc(N)c1 [3-aminobenzamide],Z Score,,−1.034
same,Z score,[6],−1.034
same,Activity,[11],no
S=C([S-])OC1CC2CC1C1CCCC21.[K+] [D-609 potassium],Z Score,[9],−0.8964
same,Z score,[1],−0.896
same,Activity,[2],no
CCN(CC)CCNC(=O)c1cc(S(C)(=O)=O)ccc1OC [Tiapride hydrochloride],Z Score,[5],0.6889
same,Z score,[6],0.689
same,Activity,[10],no
CNCCC(Oc1ccccc1OC)c1ccccc1 (stereo not shown) [Nisoxetine hydrochloride],Z Score,,0.8336
same,Z score,,0.834
N=C(N)NCCC[C@H](N)C(=O)O [L-Arginine],Z Score,,0.5592
same,Z score,[1],0.559
same,Activity,[2],no
"CCN(CC)CCOC(=O)c1cc(Cl)c(N)cc1OC.Cl [SDZ-205,557 hydrochloride]",Z Score,,−2.681
same,Z score,[6],−2.681
same,Activity,[10],yes
O=C(Nc1ccccc1)c1cc([N+](=O)[O-])ccc1Cl [GW9662],Z Score,,1.475
same,Z score,[6],1.475
same,Activity,[8],no
N#C/C(=C\c1ccc(O)c(O)c1)C(=O)Nc1ccccc1 [Tyrphostin AG 494],Z Score,,−2.275
same,Z score,[1],−2.275
same,Activity,[2],no
[N-]=[N+]=Nc1ccc(C(=O)CSC[C@H](NC(=O)CC[C@H](N)C(=O)O)C(=O)NCC(=O)O)cc1 [S-(p-Azidophenacyl)glutathione],Z Score,[5],−0.00276
same,Z score,[1],−0.003
same,Activity,[2],no
CN1CCN(CC(=O)N2c3ccccc3C(=O)Nc3cccnc32)CC1 [Pirenzepine dihydrochloride],Z score,"168 h, 3 µM",−0.545
same,Activity,[11],no
CC(=O)OC(C)C[N+](C)(C)C.[Cl-] (stereo not drawn) [Acetyl-beta-methylcholine chloride],Z Score,[9],−0.3382
same,Z score,[1],−0.338
same,Activity,[2],no
S=C(Nc1ccccc1)Nc1nccs1 [1-Phenyl-3-(2-thiazolyl)-2-thiourea],Z Score,"168 h, 3 µM",1.208
same,Z score,"168 h, 3 µM",1.208
same,Activity,[11],no
CC(=O)O.NC(=NCCC[C@H](N)C(=O)O)NO [NG-Hydroxy-L-arginine acetate],Z Score,[7],−10.96
same,Z score,[6],−10.958
same,Activity,[10],yes
"COc1ccc2c(c1OC)C(=O)OC2C1c2cc3c(cc2CCN1C)OCO3 (single isomer, unassigned; (+)) [(+)-Hydrastine]",Z Score,,−0.8362
same,Z score,[6],−0.836
same,Activity,[10],no
CN(C)CCOC(=O)COc1ccc(Cl)cc1 [Centrophenoxine hydrochloride],Z Score,,−0.3302
same,Z score,[3],−0.330
same,Activity,[4],no
"CN1CCN(c2ccc3ccccc3n2)CC1.O=C(O)/C=C\C(=O)O.O=C(O)/C=C\C(=O)O [Quipazine, N-methyl-, dimaleate]",Z Score,[9],−0.3254
same,Z score,[6],−0.325
same,Activity,[11],no
CC(C)(C)c1cc(C=C(C#N)C#N)cc(C(C)(C)C)c1O [Tyrphostin A9],Z Score,[7],−1.746
same,Z score,[1],−1.746
same,Activity,[2],no
O=c1c(O)c(-c2cc(O)c(O)c(O)c2)oc2cc(O)cc(O)c12 [Myricetin],Z Score,,−0.9113
same,Z score,[6],−0.911
same,Activity,[8],no
C=C[C@@]1(C)CC(=O)[C@]2(O)[C@@]3(C)[C@@H](O)CCC(C)(C)[C@@H]3[C@H](O)[C@H](OC(C)=O)[C@@]2(C)O1 [Forskolin],Z Score,[7],−1.331
same,Z score,[6],−1.331
O=C(O)CN(CCN(CC(=O)O)CC(=O)O)CCN(CC(=O)O)CC(=O)O [Diethylenetriaminepentaacetic acid],Z Score,[9],−0.4576
same,Z score,[6],−0.458
same,Activity,[10],no
"N[C@H](C(=O)O)c1cc(O)cc(O)c1 [(S)-3,5-Dihydroxyphenyglycine]",Z score,[3],−0.336
same,Activity,[4],no
NS(=O)(=O)c1cc2c(cc1Cl)N=CNS2(=O)=O [Chlorothiazide],Z Score,[7],−3.165
same,Z score,[6],−3.165
same,Activity,[8],yes
N.N.N.N.N.N.N.N.N.N.N.N.N.N.[Cl-].[Cl-].[Cl-].[Cl-].[Cl-].[Cl-].[O-2].[O-2].[Ru+3].[Ru+3].[Ru+4] [Ruthenium red],Z Score,,−0.07388
same,Z score,[6],−0.074
same,Activity,[11],no
Cl.N=C(N)NC(=O)Cc1c(Cl)cccc1Cl [Guranfacine hydrochloride],Z score,[6],0.927
same,Activity,[4],no
